Laboratory results: patent publication US9707233B2, “Heterocyclylamines as PI3K inhibitors” (Incyte Corporation, priority 2011, dated 2017)

Molecular target: PI3Kδ (Homo sapiens (Human), UniProt O00329)
Assay: PI3K enzyme assay, [γ-33P]ATP filter plate (Example A2), isoform δ
Assay type: biochemical
Conditions: as determined by Assay A2; 1000 μM ATP, 2.9 nM PI3Kδ
Experimental: PI3K isoforms α, β, δ and γ are purchased from Millipore (Bedford, Mass.).
Inhibitors are first diluted serially in DMSO and added to the plate wells before the addition of other reaction components. The final concentration of DMSO in the assay is 0.5%. The PI3K assays are carried out at room temperature in 20 mM MOPS, pH 6.7, 10 mM MgCl2, 5 mM DTT and CHAPS 0.03%. The reaction mixture is prepared containing 50 μM PIP2, kinase and varying concentration of inhibitors. Reactions are initiated by the addition of ATP containing 2.2 μCi [γ-^33P]ATP to a final concentration of 1000 μM. […] Reactions are incubated for 180 minutes and terminated by the addition of 100 μL of 1 M potassium phosphate pH 8.0, 30 mM EDTA quench buffer. A 100 μL aliquot of the reaction solution are then transferred to 96-well Millipore MultiScreen IP 0.45 μm PVDF filter plate (The filter plate is prewetted with 200 μL 100% ethanol, distilled water, and 1 M potassium phosphate pH 8.0, respectively). […] After drying by aspiration and blotting, the plate is air dried in an incubator at 37° C. overnight. Packard TopCount adapter (Millipore) is then attached to the plate followed with addition of 120 μL Microscint 20 scintillation cocktail (Perkin Elmer) in each well. After the plate sealing, the radioactivity of the product is determined by scintillation counting on Topcount (Perkin-Elmer). […]

PI3Kδ, sequence (O00329 whole entry, canonical isoform): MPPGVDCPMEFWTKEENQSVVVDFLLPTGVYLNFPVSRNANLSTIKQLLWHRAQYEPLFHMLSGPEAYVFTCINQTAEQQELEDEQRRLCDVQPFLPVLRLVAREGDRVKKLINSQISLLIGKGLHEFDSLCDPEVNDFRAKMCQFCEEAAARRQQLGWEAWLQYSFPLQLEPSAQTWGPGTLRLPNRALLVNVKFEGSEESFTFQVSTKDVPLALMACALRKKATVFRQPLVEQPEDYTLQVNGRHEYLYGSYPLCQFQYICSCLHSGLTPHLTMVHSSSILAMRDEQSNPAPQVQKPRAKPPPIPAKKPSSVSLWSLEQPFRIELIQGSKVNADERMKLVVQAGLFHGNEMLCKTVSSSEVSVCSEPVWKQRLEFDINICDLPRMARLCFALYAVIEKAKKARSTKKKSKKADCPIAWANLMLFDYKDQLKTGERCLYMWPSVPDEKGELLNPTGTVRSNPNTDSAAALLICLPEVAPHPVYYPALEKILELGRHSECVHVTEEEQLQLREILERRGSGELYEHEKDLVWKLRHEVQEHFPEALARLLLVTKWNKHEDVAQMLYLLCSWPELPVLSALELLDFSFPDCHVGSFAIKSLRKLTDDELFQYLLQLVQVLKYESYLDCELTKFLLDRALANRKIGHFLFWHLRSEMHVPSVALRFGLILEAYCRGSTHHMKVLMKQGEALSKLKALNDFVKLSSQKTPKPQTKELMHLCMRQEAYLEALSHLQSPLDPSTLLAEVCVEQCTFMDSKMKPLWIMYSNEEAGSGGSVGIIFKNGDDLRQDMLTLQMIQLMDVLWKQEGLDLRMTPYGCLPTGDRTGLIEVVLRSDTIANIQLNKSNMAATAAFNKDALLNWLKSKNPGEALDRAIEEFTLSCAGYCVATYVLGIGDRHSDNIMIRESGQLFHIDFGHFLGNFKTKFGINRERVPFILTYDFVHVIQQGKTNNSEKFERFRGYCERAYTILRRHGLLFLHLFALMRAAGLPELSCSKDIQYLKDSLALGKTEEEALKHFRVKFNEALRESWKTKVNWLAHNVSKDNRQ
PI3Kδ, sequence (P27986 whole entry partner, canonical isoform): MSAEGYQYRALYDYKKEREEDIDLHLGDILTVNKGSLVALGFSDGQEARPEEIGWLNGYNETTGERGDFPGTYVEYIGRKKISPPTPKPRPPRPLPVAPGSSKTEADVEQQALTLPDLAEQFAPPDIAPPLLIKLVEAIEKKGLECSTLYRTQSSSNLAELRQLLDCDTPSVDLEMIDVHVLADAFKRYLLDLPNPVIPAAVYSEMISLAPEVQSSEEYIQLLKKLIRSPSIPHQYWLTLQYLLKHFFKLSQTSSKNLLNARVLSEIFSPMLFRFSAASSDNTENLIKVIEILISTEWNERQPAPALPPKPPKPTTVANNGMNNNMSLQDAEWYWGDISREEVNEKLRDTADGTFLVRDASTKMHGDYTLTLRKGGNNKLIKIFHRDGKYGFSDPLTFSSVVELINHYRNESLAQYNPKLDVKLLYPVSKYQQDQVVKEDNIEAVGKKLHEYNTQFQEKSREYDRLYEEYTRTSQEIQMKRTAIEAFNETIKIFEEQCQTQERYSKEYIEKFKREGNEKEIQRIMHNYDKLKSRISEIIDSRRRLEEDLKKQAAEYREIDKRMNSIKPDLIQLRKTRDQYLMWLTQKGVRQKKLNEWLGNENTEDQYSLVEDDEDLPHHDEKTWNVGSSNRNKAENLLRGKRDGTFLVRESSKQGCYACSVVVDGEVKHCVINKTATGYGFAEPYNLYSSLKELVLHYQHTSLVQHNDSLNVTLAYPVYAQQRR

IC50: 50 to 200 nM
SMILES: COc1c([C@@H](C)n2nc(C)c3c(N)ncnc32)cc(Cl)c(C#N)c1C1CN(C[C@@H](C)O)C1 [Example 363, 4-((R)-1-(4-amino-3-methyl-1H-pyrazolo[3,4-d]pyrimidin-1-yl)ethyl)-6-chloro-2-(1-((R)-2-hydroxypropyl)azetidin-3-yl)-3-methoxybenzonitrile]
